The source of these data is ChEMBL document CHEMBL2390905, “Recent development of potent analogues of oxazolidinone antibacterial agents” (Bioorg Med Chem, 2013).

The Ki is the dissociation constant of the complex between target and ligand, obtained from inhibition or displacement. Low readings indicate higher affinity, high ones lower affinity. For orientation: MIC means the lowest concentration that inhibits growth of the organism.

Values after ≈ are worked out from the molar mass of the structure shown. Bounds are passed on as bounds.

In experiment [1] the target is T1, Amine oxidase [flavin-containing] A (Homo sapiens, UniProt P21397).
T1 sequence (P21397 whole entry): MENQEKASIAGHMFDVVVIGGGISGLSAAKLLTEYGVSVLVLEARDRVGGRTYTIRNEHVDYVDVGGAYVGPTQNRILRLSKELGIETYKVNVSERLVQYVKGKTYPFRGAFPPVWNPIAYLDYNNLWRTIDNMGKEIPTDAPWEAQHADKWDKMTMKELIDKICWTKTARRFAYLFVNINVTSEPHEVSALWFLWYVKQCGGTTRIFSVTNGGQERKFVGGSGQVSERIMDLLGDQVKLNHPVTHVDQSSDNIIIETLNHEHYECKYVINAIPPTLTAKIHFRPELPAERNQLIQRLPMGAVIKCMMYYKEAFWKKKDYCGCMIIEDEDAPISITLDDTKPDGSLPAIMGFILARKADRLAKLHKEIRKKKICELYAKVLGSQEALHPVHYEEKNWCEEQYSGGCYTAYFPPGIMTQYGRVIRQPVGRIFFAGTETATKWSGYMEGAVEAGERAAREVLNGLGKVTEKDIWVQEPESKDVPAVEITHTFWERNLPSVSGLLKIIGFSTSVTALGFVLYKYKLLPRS
Nature of the experiment: Inhibition of MAO-A (unknown origin) by luciferase […] assay. Background: A reporter such as luciferase makes a cellular process visible.

A further experiment deals with Escherichia coli. Nature of the experiment: Ratio of linezolid MIC to compound MIC for Escherichia coli. The format is functional.
Experiment [2] deals with Enterococcus faecium. Nature of the experiment: Ratio of linezolid MIC to compound MIC for multidrug-resistant Enterococcus faecium. It is filed as functional.
Experiment [3] has as its system Enterococcus faecalis. Nature of the experiment: Ratio of linezolid MIC to compound MIC for multidrug-resistant Enterococcus faecalis. It is filed as functional.
Experiment [4] has as its system Staphylococcus epidermidis. Nature of the experiment: Ratio of linezolid MIC to compound MIC for multidrug-resistant Staphylococcus epidermidis. The format is functional.
Experiment [5] deals with Staphylococcus aureus. Nature of the experiment: Ratio of linezolid MIC to compound MIC for multidrug-resistant Staphylococcus aureus. It is filed as functional.
Experiment [6] deals with Haemophilus influenzae. Nature of the experiment: Ratio of linezolid MIC to compound MIC for Haemophilus influenzae. The format is functional.
Experiment [7] concerns Mycobacterium tuberculosis. Nature of the experiment: Ratio of mefloquine MIC to compound MIC for Mycobacterium tuberculosis H37Rv. It is filed as functional.
Experiment [8] deals with Enterococcus faecium. Nature of the experiment: Antibacterial activity against Enterococcus faecium ATCC 700221 assessed as growth inhibition after 16 to 20 hrs by broth microdilution method. It is filed as functional. In general terms: In broth dilution the organism is exposed to a series of concentrations in liquid medium.
The subject of experiment [9] is Staphylococcus aureus. Nature of the experiment: Antibacterial activity against linezolid-resistant Staphylococcus aureus PTCC 100 assessed as growth inhibition after 16 to 20 hrs by broth microdilution method. The format is functional.
For experiment [10], the system named is Enterococcus faecalis. Nature of the experiment: Antibacterial activity against Enterococcus faecalis ATCC 29212 assessed as growth inhibition after 16 to 20 hrs by broth microdilution method. The format is functional.
For experiment [11], the system named is Staphylococcus aureus. Nature of the experiment: Antibacterial activity against methicillin-resistant Staphylococcus aureus ATCC 33591 assessed as growth inhibition after 16 to 20 hrs by broth microdilution method. It is filed as functional.
Experiment [12] relates to Staphylococcus aureus. Nature of the experiment: Antibacterial activity against methicillin-sensitive Staphylococcus aureus ATCC 29213 assessed as growth inhibition after 16 to 20 hrs by broth microdilution method. The format is functional.
For experiment [13], the system named is Enterococcus faecalis. Nature of the experiment: Antibacterial activity against Enterococcus faecalis assessed as growth inhibition. The format is functional.
Experiment [14] has as its system Staphylococcus epidermidis. Nature of the experiment: Antibacterial activity against Staphylococcus epidermidis assessed as growth inhibition. The format is functional.
For experiment [15], the system named is Staphylococcus aureus. Nature of the experiment: Antibacterial activity against methicillin-resistant Staphylococcus aureus assessed as growth inhibition. The format is functional.
Experiment [16] has as its system Haemophilus influenzae. Nature of the experiment: Ratio of tedizolid MIC to compound MIC for Haemophilus influenzae. The format is functional.
In experiment [17] the test system is Enterococcus. Nature of the experiment: Ratio of tedizolid MIC to compound MIC for Enterococcus spp. It is filed as functional.
Experiment [18] deals with Streptococcus pneumoniae. Nature of the experiment: Ratio of tedizolid MIC to compound MIC for Streptococcus pneumoniae. The format is functional.
For experiment [19], the system named is Staphylococcus aureus. Nature of the experiment: Ratio of tedizolid MIC to compound MIC for methicillin-resistant Staphylococcus aureus. It is filed as functional.
For experiment [20], the system named is Streptococcus pneumoniae. Nature of the experiment: Ratio of linezolid MIC to compound MIC for Streptococcus pneumoniae. The format is functional.
Experiment [21] has as its system Staphylococcus aureus. Nature of the experiment: Ratio of linezolid MIC to compound MIC for methicillin-resistant Staphylococcus aureus. The format is functional.
The subject of experiment [22] is Enterococcus. Nature of the experiment: Ratio of linezolid MIC to compound MIC for Enterococcus spp. It is filed as functional.

As for `CC(=O)NC[C@H]1CN(c2ccc(N3CCOCC3)c(F)c2)C(=O)O1` [LINEZOLID], the Ki in experiment [1] was found to be 7.9 µM.

Take `CC(=O)NC[C@H]1CN(c2ccc(-c3ccc(C(=O)NN)cc3)c(F)c2)C(=O)O1`: the Ratio (in the experiment with Escherichia coli; in the experiment on Enterococcus faecium [2]; with Enterococcus faecalis [3]; in experiment [4]; in the experiment on Staphylococcus aureus [5]; in the experiment on Haemophilus influenzae [6]) was 2 throughout.

For `CN1CCN(c2ccc(N3C[C@H](COC(N)=S)OC3=O)cc2F)C=N1`, the Ki in experiment [1] came out at 4 µM.

In turn, `CC(=O)NC[C@H]1CN(c2ccc(N3C=NN(C)CC3)c(F)c2)C(=O)O1` returned a Ki in [1] of 4 µM.

Take `Cn1nnc(-c2ccc(-c3ccc(N4C[C@H](CO)OC4=O)cc3F)cn2)n1` [TEDIZOLID]: the Ki in [1] was under 2 µM.

For the compound `CCOC(=O)c1cc(COc2cc(C(F)(F)F)nc3c(C(F)(F)F)cccc23)on1`, the Ratio in [7] was 14.4.

Take `O=C(/C=C/c1ccccc1)NC[C@H]1CN(c2cc(F)c(N3CCN(C(=O)CNC(=O)c4cn5cccnc5n4)CC3)c(F)c2)C(=O)O1`: the MIC was 0.25 µg/mL (≈ 0.388 µM) in the experiment with Enterococcus faecium [8]; 1 µg/mL (≈ 1.55 µM) with Staphylococcus aureus [9]; 0.125 µg/mL (≈ 0.194 µM) in the experiment on Enterococcus faecalis [10]; 0.125 µg/mL (≈ 0.194 µM) in the experiment with Staphylococcus aureus [11]; 0.125 µg/mL (≈ 0.194 µM) in the experiment on Staphylococcus aureus [12].

With `CC(=O)NC[C@H]1CN(c2ccc(N3CCN(C(=O)CCl)CC3)c(F)c2)C(=O)O1`, the MIC in the experiment with Enterococcus faecalis [13] was 0.5 µg/mL (≈ 1.21 µM); in experiment [14] it was 1 µg/mL (≈ 2.42 µM); in the experiment on Staphylococcus aureus [15], 1 µg/mL (≈ 2.42 µM).

As for `CC(=O)NC[C@H]1CN(c2ccc(N3CCN(C(=O)C(Cl)Cl)CC3)c(F)c2)C(=O)O1`, the values for the MIC (in the experiment with Enterococcus faecalis [13]; in experiment [14]; in the experiment with Staphylococcus aureus [15]) were 0.5 µg/mL (≈ 1.12 µM), 1 µg/mL (≈ 2.24 µM) and 1 µg/mL (≈ 2.24 µM), respectively.

Regarding `O=C1O[C@@H](CO)CN1c1ccc(-c2ccc(N3CCOC3=O)nc2)c(F)c1`, the Ratio in the experiment with Haemophilus influenzae [16] is 2; in the experiment on Enterococcus [17], 2; with Streptococcus pneumoniae [18], 2; in the experiment on Haemophilus influenzae [6], 8; in the experiment with Staphylococcus aureus [19] it was 2; with Streptococcus pneumoniae [20], 8. Moreover, the Ratio in the experiment on Staphylococcus aureus [21] and in the experiment with Enterococcus [22] was 8 each time.
